US20020137704A1, “Methods of inhibiting host-cell mediated viral replication” (priority 2000, published 2002)

Legend:
[1] = system: HIV-2 LTR; assay: HIV-2 enhancer CAT reporter assay in transfected U937 cells; format: cell-based, Human
Description: Cell Culture. Human U937 monocytic cells were maintained in RPMI 1640 medium containing 10% fetal bovine serum (GibcoBRL), penicillin (50 units/ml), streptomycin (50 μg/ml), and L-glutamine (2 mM).
Phosphatase Inhibition. […]
Transfections. 5 μg of CAT reporter construct, pCMV5 PP2Ac, and the empty pCMV5 vector were combined to yield 25 μg total DNA. U937 undergoing logarithmic growth were harvested at 5×10^5 cells/ml and resuspended at 25×10^6 cells/ml in RPMI 1640 media. 10^7 cells (0.4 ml) were aliquoted to 0.4 cm electroporation cuvettes (Invitrogen) and incubated with the appropriate DNA mixture for 5 min at room temperature. The cells were then electroporated using Invitrogen's Electroporator II at a setting of 330 V, 1000 μF, and infinite resistance with an input voltage of approximately 325 V. Following electroporation, the cells from each cotransfection were evenly split ([…]) and placed in separate tissue culture plates in 5 ml of RPMI1640 media+10% FBS. After a period of 12-16 hrs, one group of cells was left untreated while the other received 32 nM TPA for 24 hrs. The cells were then harvested, washed with PBS, and lysed in 0.25 M Tris-HCl (pH 7.5). Protein levels of the lysates were determined by BioRad's colorimetric protein assay (BioRad).
Chloramphenicol Acetyl Transferase (CAT) Assay. For CAT assays, 5-30 μl of cell lysate was combined with 20 μl of 100 mM Tris-HCl (pH 7.5). The final volume was increased to 50 μl with lysis buffer, if necessary, and the mixture incubated for 15 min at 65° C. to inactivate endogenous acetyltransferases. The lysates were then transferred to 7 ml scintillation vials and 200 μl CAT reaction mixture (125 mM Tris-HCl, 1.25 mM chloramphenicol, 0.1 μCi ^3H-acetyl CoA) added. Five ml of Econofluor (Fisher Scientific) scintillation fluid was overlaid and the reaction incubated for 15-90 min before counting. Background and total counts were determined by mixing 200 μl CAT reaction mixture with 5 ml of Econfluor or Scintiverse (Fisher Scientific) respectively. CAT activity was background subtracted and normalized for total amount of protein used.
To test the possibility that PP2A is involved in the activation of the HIV-2 LTR and that PP2A may act on the HIV-2 LTR through the pets site, U937 cells were transfected with an HIV-2 enhancer CAT reporter alone or with pCMV5 PP2Ac, a plasmid encoding the catalytic domain of PP2A. After transfection, cells from each condition were split into an untreated control sample, to assess the baseline effects of PP2A, or a sample that received 32 nM 12-O-tetradecanoyl phorbol-13-acetate (TPA) for 24 hrs. […]

[2] = system: HIV-1; settings: U1 cells; for inhibition of PMA-stimulated HIV-1 replication: RT assay
[3] = system: U1 cells; assay: Cellular viability of U1 cells treated with FST; format: cell-based
Description: The cellular viability was >100% for 10 μM FST compared to no treatment and 76.3% for 10 μM FST and PMA compared with PMA alone.

[4] = system: HIV-1 LTR; settings: literature reports; cited from earlier work

| SMILES | increase in CAT activity above baseline ([1]; 32 nM TPA, absence of ectopic PP2Ac, U937 cells, HIV-2 CAT reporter) [fold] | reversal of PMA stimulation of HIV-1 replication ([2]; 10 μM, PMA 32 nM) | inhibition of PMA-stimulated HIV-1 replication ([2]; PMA 32 nM) | cellular viability compared to no treatment ([3]; 10 μM FST) [%] | cellular viability compared with PMA alone ([3]; 10 μM FST and PMA) [%] | effect of treatment on cellular viability ([3]; treatment with FST) | effect on the HIV-1 LTR [4] | concentration dependence of inhibition of replication ([2]; PMA 32 nM, from 50 nM to 200 nM) | inhibition of HIV-1 replication in the absence of PMA ([2]; no PMA) | effect on synergy between PP2Ac and TPA in activating HIV-2 enhancer CAT reporter ([1]; 5 μg pCMV5 PP2Ac plus TPA, OKA 50-400 nM) | effect of OKA on CAT activity of TPA-treated cells ([1]; OKA 50-400 nM pretreatment 30 min prior to TPA, U937 cells) | maximal increase in CAT reporter activity ([1]; OKA alone for 18 hrs, maximal activity at 200 nM, U937 cells) [fold] |
| --- | --- | --- | --- | --- | --- | --- | --- | --- | --- | --- | --- | --- |
| CCCCCCCCCCCCCC(=O)O[C@@H]1[C@@H](C)[C@@]2(O)[C@@H](C=C(CO)C[C@]3(O)C(=O)C(C)=C[C@@H]23)[C@@H]2C(C)(C)[C@]12OC(C)=O [TPA, 12-O-tetradecanoyl phorbol-13-acetate] | 148 |  |  |  |  |  |  |  |  |  |  |  |
| C[C@@](O)(/C=C/[C@H]1CC=CC(=O)O1)[C@@H](C[C@@H](O)\C=C/C=C\C=C\CO)OP(=O)(O)O [fostreicin] |  | totally reversed PMA stimulation of HIV-1 replication | inhibit PMA-stimulated HIV-1 replication | > 100 | 76.3 | minimally affected |  |  |  |  |  |  |
| C=C1[C@@H](O)[C@@H]2O[C@]3(CC[C@H](/C=C/[C@@H](C)[C@@H]4CC(C)=C[C@@]5(O[C@H](C[C@@](C)(O)C(=O)O)CC[C@H]5O)O4)O3)CC[C@H]2O[C@@H]1[C@@H](O)C[C@H](C)[C@H]1O[C@@]2(CCCCO2)CC[C@H]1C [okadaic acid] |  |  | inhibit PMA-stimulated HIV-1 replication |  |  |  | activate the HIV-1 LTR | inhibited replication in a concentration dependent manner | no inhibition | significantly reduced in a dose dependent manner | decrease in CAT activity | 150 |
